Values quoted from earlier work as cited in article PMC4139154 (Biochemistry, 2014).

Key:
eNOS = conditions: read-out: Kd of imidazole for eNOS
iNOS = conditions: read-out: Kd of imidazole for iNOS
nNOS = conditions: read-out: Kd of imidazole for nNOS

In the case of c1c[nH]cn1 [imidazole], the Kd (eNOS) is given as 150 µM, the Kd (iNOS) is given as 42 µM and the Kd (nNOS) is given as 160 µM.
